In patent US20260285903A1, “SYNTHESIZED BIOLOGICALLY ACTIVE COMPOUNDS AND METHODS OF MAKING AND USING” (Georgia State University Research Foundation, Inc., priority 2023, published 2026):

Experiments:
[1] = Partition between octanol and aqueous buffer (Log D7.4); type: physicochemical; conditions: pH 7.4
From the text: (§1) The main reason for failure in drug development is poor biopharmaceutical properties, which include low aqueous solubility, chemical instability.
(§2) The biopharmaceutical properties of the synthesized M13 (5-glutathione-6-shogaol) were characterized.

[2] = Chemical stability at various pH / in acidic PBS (HPLC); type: physicochemical
From the text: as §1, §2

[3] = test system: AOM/DSS-induced colon tumors; experiment: AOM/DSS-induced CAC mouse model, oral gavage; type: in vivo, C57BL/6J mice; conditions: 5 mg/kg oral, vs AOM/DSS group
Experimental: Female C57BL/6J mice (Strain #:000664, The Jackson Laboratory, Bar Harbor, ME), female interleukin-10 knock-out (IL10^−/− mice, B6.129P2-IL10 tmlCgn, The Jackson Laboratory), and female CD-1 mice (CD-1@IGS Mouse, outbred, Charles River) were housed in a clean facility maintained at 22±2° C. and 30-70% relative humidity with a 12-h light/dark cycle. The diet (ABDIET@PICOLAB®, PMI Nutrition International LLC, Arden Hills, MN, USA) and water were provided ad libitum. Mice experiments were performed following ARRIVE guidelines 2.0, with approval from the Georgia State University Institutional Animal Care and Use Committee (IACUC, Protocol #A20039).
An AOM/DSS-induced CAC mouse model (C57BL/6J) was used to test the anti-cancer effects of free M13, NL, and M13-NL. […] Healthy mice were used as the control group (WT group).
Histological assessments of the colon tissues from AOM/DSS-induced CAC mice were performed. […] Immunofluorescence (IF) staining of apoptotic cells (TUNEL) and immunohistochemical (IHC) staining of Ki-67 were used to investigate the pro-apoptotic and anti-proliferative effects of M13-NL in vivo.

HCT-116 = experiment: MTT viability assay, 2D culture; type: cell-based, human
Experimental: PBMCs were provided by STEMCELL Technologies (STEMCELL Canada Inc.) and maintained in ImmunoCult™-XF T-cell Expansion Medium (Cat #10981). HIEC-6 cells were maintained in OptiMEM 1 Reduced Serum Medium supplemented with 20 mM HEPES, 10 mM GlutaMAX, 10 ng/mL Epidermal Growth Factor, 4% (v/v) fetal bovine serum (FBS), and 1% penicillin-streptomycin (PS). HCT-116 cells were maintained in ATCC-formulated McCoy's 5a medium, supplemented with 10% (v/v) FBS and 1% PS. Caco-2/BBe cells were grown in DMEM supplemented with 10% (v/v) FBS and 1% PS (v/v). Human colon cancer stem cells (HC-CSC) were maintained in complete growth media with serum and antibiotics (Cat #M36112-39S) from Celprogen Inc. (Torrance, CA, USA).
The […] (MTT) assay was used to study the effects of M13 on the viability of four 2D-cultured human intestinal cell lines (HIEC-6, HCT-116, Caco-2/BBe, and HC-CSC).

[4] = Single-dose maximum tolerated dose (MTD) general toxicity study; type: in vivo, CD-1 mice
Experimental: A general toxicity study was performed by using maximum tolerated dose (MTD) of M13. Eight-week old mice were orally administered 1000 mg/kg or with PBS. On day one and day 7, mice were examined for weight loss and clinical scores were noted. Clinical signs were scored by assessing activity, appearance, and body condition for seven days.
To further determine the potential acute toxicity of M13 in vivo, a single-dose maximum tolerated dose (MTD) study of M13 was performed in CD-1 mice. Eight-week-old female mice were orally administered a single dose of M13 (1000 mg/kg) or PBS (as control) on day 0 and subjected to regular water and diet for 7 days.

Kinetic solubility = type: physicochemical
From the text: as §1, §2

[5] = CD-1 mice, single oral dose 1000 mg/kg, day 7

## CCCCCC(CC(=O)CCc1ccc(O)c(OC)c1)SCC(NC(=O)CCC(N)C(=O)O)C(=O)NCC(=O)O (centres unmarked) [M13, 5-glutathione-6-shogaol]
[1]
  logD: -1.75
[2]; 37° C., 2 h, acidic PBS (pH=5.0 or 3.0)
  relative content of M13 before and after incubation (HPLC): consistent before and after incubation
[2]; pH 2 to pH 10
  stability at various pH levels: very stable
[3]
  number of tumors: failed to reduce the number of tumors
HCT-116; HIEC-6 vs HCT-116
  fold by which IC50 against HIEC-6 is higher: 2.5 fold
HCT-116; Homo sapiens, HCT-116, 24 h incubation
  IC50: 40.1 µM
[4]; CD-1 mice, single oral dose 1000 mg/kg, 7 days, vs PBS
  death or differences in physiological indices: no significant death or differences
[4]; [5]
  body weight change, spleen-to-body weight ratio, blood physiological and biochemical indices: no significant difference
  pathological signs in the anatomical organs: no pathological signs
[4]; mouse, in vivo, single-dose oral, mice
  MTD at 168 h: > 1000 mg/kg
[4]; oral 1000 mg/kg, seven days of observation, vs PBS
  weight loss and clinical signs: No significant changes
[4]; oral 1000 mg/kg, vs PBS
  white blood cell number, red blood cell number, hemoglobin levels, parameters of hepatic or renal function: no significant differences
Kinetic solubility; Example 1
  solubility kinetic: > 200 µM
Kinetic solubility; as printed in Example 6
  solubility kinetic: > 200 µM
